According to patent publication US20250296940A1, “ANNULATED 2-AMINO-3-CYANO THIOPHENES AND DERIVATIVES FOR THE TREATMENT OF CANCER” (Boehringer Ingelheim Int'l GmbH Corp., priority 2021, published 2025):

Experiment: Caco-2 assay
Type: in vitro ADME
Settings: human, 10 μM compound; for Papp A→B at 90 min, 10 μM: apical to basolateral, pH 7.4, read-out: Caco PappAB; for efflux ratio at 90 min, 10 μM: efflux ratio PappBA/PappAB, pH 7.4, read-out: Caco ER
Source text: The assay provides information on the potential of a compound to pass the cell membrane, on the extent of oral absorption as well as on whether the compound is actively transported by uptake and/or efflux transporters. Permeability measurements across polarized, confluent Caco-2 cell monolayers grown on permeable filter supports (Corning, catalog #3391) are used. […] The receiver and donor compartments contain 0.25% bovine serum albumine (BSA) in assay buffer. Passive diffusion and/or active transport of compounds across the monolayer is measured in both apical to basolateral (a-b) and basolateral to apical (b-a) direction. a-b permeability (PappAB) represents drug absorption from the intestine into the blood and b-a permeability (PappBA) drug secretion from the blood back into the intestine via both passive permeability as well as active transport mechanisms mediated by efflux and uptake transporters that are expressed on the Caco-2 cells. After a pre-incubation of 25-30 min at 37° C., at predefined time points (0, 30, 60 and 90 min), samples were taken from the receiver and donor compartment, respectively. Concentrations of test compounds in samples were measured by HPLC/MS/MS, samples from the donor compartment were diluted 1:50 (v:v) with assay buffer, samples from receiver compartment were measured without dilution.
Apparent permeabilities in a-b (PappAB) and b-a (PappBA) directions are calculated according to the formula:
[formula] • Vrec [mL]: buffer volume in receiver compartment • Cdon [μmol/mL]: concentration of test compound in donor compartment at t=0 • ΔCrec: difference between concentrations of test compound in receiver compartment at start and end of incubation time • Δt: Incubation time • Vrec·ΔCrec/Δt [μmol/min]: Amount of compound transferred to receiver compartment per time • A [cm^2]: filter surface
Caco-2 efflux ratios (ER) are calculated as the ratio of PappBA/PappAB.
Data obtained with the disclosed assay for a selection of compounds (I) according to the invention: […]

Row | SMILES | Papp A→B at 90 min, 10 μM [×10⁻⁶ cm/s] | efflux ratio at 90 min, 10 μM
1 | C=C(F)C(=O)N1[C@@H](C)CN(c2cc(O[C@@H](C)[C@@H]3CCCN3C)nc(-c3onc4c3CCC[C@@]43CCCc4sc(N)c(C#N)c43)n2)C[C@@H]1C [Ia-1] | 4.4 | 3.6
2 | C=CC(=O)N1[C@@H](C)CN(c2cc(O[C@@H](C)[C@@H]3CCCN3C)nc(-c3onc4c3CCC[C@@]43CCCc4sc(N)c(C#N)c43)n2)C[C@@H]1C [Ia-2] | 2.9 | 8.6
3 | C=CC(=O)N1[C@@H](C)CN(c2cc(-c3onc4c3CCC[C@@]43CCCc4sc(N)c(C#N)c43)nc(O[C@@H](C)[C@@H]3CCCN3C)n2)C[C@@H]1C [Ia-4] | 1.3 | 30.7
4 | C[C@H](Oc1cc(N2C[C@H](C)N(C(=O)/C=C/CF)[C@@H](C)C2)nc(-c2noc3c2CCC[C@@]32CCCc3sc(N)c(C#N)c32)n1)[C@@H]1CCCN1C [Ib-1] | 0.8 | 28.6
5 | C=CC(=O)N1CCN(c2cc(O[C@@H](C)[C@@H]3CCCN3C)nc(-c3noc4c3CCC[C@@]43CCCc4sc(N)c(C#N)c43)n2)CC12CC2 [Ib-2] |  | 18.2
6 | C=CC(=O)N1[C@@H](C)CN(c2cc(O[C@@H](C)[C@@H]3CCCN3C)nc(-c3noc4c3CCC[C@@]43CCCc4sc(N)c(C#N)c43)n2)C[C@@H]1C [Ib-3] | 6.3 | 3
7 | C=CC(=O)N1[C@@H](C)CN(c2cc(-c3noc4c3CCC[C@@]43CCCc4sc(N)c(C#N)c43)nc(O[C@@H](C)[C@@H]3CCCN3C)n2)C[C@@H]1C [Ib-4] | 3.1 | 12.3
8 | C=C(F)C(=O)N1[C@@H](C)CN(c2cc(O[C@@H](C)[C@@H]3CCCN3C)nc(-c3noc4c3CCC[C@@]43CCCc4sc(N)c(C#N)c43)n2)C[C@@H]1C [Ib-5] | 11 | 1.1
9 | C=C(F)C(=O)N1[C@@H](C)CN(c2cc(-c3noc4c3CCC[C@@]43CCCc4sc(N)c(C#N)c43)nc(O[C@@H](C)[C@@H]3CCCN3C)n2)C[C@@H]1C [Ib-6] | 9.2 | 1.7
10 | C[C@H](Oc1nc(-c2noc3c2CCC[C@@]32CCCc3sc(N)c(C#N)c32)cc(N2C[C@H](C)N(C(=O)/C=C/CF)[C@@H](C)C2)n1)[C@@H]1CCCN1C [Ib-7] | 2.4 | 10.4
11 | COC/C=C/C(=O)N1[C@@H](C)CN(c2cc(-c3noc4c3CCC[C@@]43CCCc4sc(N)c(C#N)c43)nc(O[C@@H](C)[C@@H]3CCCN3C)n2)C[C@@H]1C [Ib-9] | 2.4 | 7.5
